These results are taken from publication PMC11995724, “Antibiotic target discovery by integrated phenotypic and activity-based profiling of electrophilic fragments” (Cell chemical biology, 2025).

The structures appear in SMILES notation. Where a name gives a salt, the structure may show the parent alone.

In general, viability refers to a read-out of living cells in per cent, often relative to untreated cells.

This series in a line: in vitro. The conditions noted are these: human, hek293t cells.
In the case of `CC1CCN(C(=O)CCl)c2cc(Cl)ccc2S1` (stereo not shown) [4-G16, 2-chloro-1-(7-chloro-2-methyl-2,3,4,5-tetrahydro-1,5-benzothiazepin-5-yl)ethan-1-one], the viability at 48 h, 25 µM was 0.484%.

With `Cc1cc(C)c(-c2csc(NC(=O)CCl)n2)cc1C` [4-G17, 2-chloro-N-[4-(2,4,5-trimethylphenyl)-1,3-thiazol-2-yl]acetamide], the viability at 48 h, 25 µM worked out at 0.339%.

On to `CC(Cl)C(=O)Nc1ccccc1[N+](=O)[O-]` (stereo not shown) [4-G18, 2-chloro-N-(2-nitrophenyl)propanamide], for which the viability at 48 h, 25 µM is 103%.

Take `O=C(CCl)N(CC=Cc1ccccc1)c1ccc2c(c1)OCCO2` [4-G19, 2-chloro-N-(2,3-dihydro-1,4-benzodioxin-6-yl)-N-(3-phenylprop-2-en-1-yl)acetamide]: the viability at 48 h, 25 µM was determined as 0.292%.

With `COc1ccc(C2=NN(C(=O)CCl)C(c3cccc(C)c3)C2)cc1` (stereo not shown) [4-G20, 2-chloro-1-[3-(4-methoxyphenyl)-5-(3-methylphenyl)-4,5-dihydro-1H-pyrazol-1-yl]ethan-1-one], the viability at 48 h, 25 µM was -0.0034%.

In the case of `O=C(CCl)NCCSc1ccccc1` [4-G21, 2-chloro-N-[2-(phenylsulfanyl)ethyl]acetamide], the viability at 48 h, 25 µM was determined as 1.68%.

For the molecule `CC(=O)Nc1ccc(C2=NN(C(=O)CCl)C(c3ccco3)C2)cc1` (stereo not shown) [4-G22, N-{4-[1-(2-chloroacetyl)-5-(furan-2-yl)-4,5-dihydro-1H-pyrazol-3-yl]phenyl}acetamide], the viability at 48 h, 25 µM was 0.156%.

On to `CC(C)Cc1ccc(C(C)NC(=O)CCl)cc1` (stereo not shown) [4-H03, 2-chloro-N-{1-[4-(2-methylpropyl)phenyl]ethyl}acetamide], for which the viability at 48 h, 25 µM was 0.63%.

Regarding `CN(c1ccccc1)S(=O)(=O)c1cccc(NC(=O)CCl)c1` [4-H04, 2-chloro-N-{3-[methyl(phenyl)sulfamoyl]phenyl}acetamide], the viability at 48 h, 25 µM was found to be 0.751%.

Regarding `O=C(CCl)NCCC1=CCCCC1` [4-H05, 2-chloro-N-[2-(cyclohex-1-en-1-yl)ethyl]acetamide], the viability at 48 h, 25 µM came to 20.9%.

In the case of `O=C(CCl)Nc1ccc(S(=O)(=O)N2CCCCC2)cc1` [4-H06, 2-chloro-N-[4-(piperidine-1-sulfonyl)phenyl]acetamide], the viability at 48 h, 25 µM is 0.963%.

Consider `O=C(CCl)N(Cc1ccc(Cl)cc1)C12CC3CC(CC(C3)C1)C2` [4-H07, N-(adamantan-1-yl)-2-chloro-N-[(4-chlorophenyl)methyl]acetamide], for which the viability at 48 h, 25 µM was -0.34%.

On to `O=C(CCl)Nc1nc2ccc([N+](=O)[O-])cc2s1` [4-H08, 2-chloro-N-(6-nitro-1,3-benzothiazol-2-yl)acetamide], for which the viability at 48 h, 25 µM was 0.244%.

For the molecule `Cc1ccc(C)c(Sc2ccc(NC(=O)CCl)cc2)c1` [4-H09, 2-chloro-N-{4-[(2,5-dimethylphenyl)sulfanyl]phenyl}acetamide], the viability at 48 h, 25 µM is -0.157%.

In the case of `CSc1cccc(NC(=O)CCl)c1` [4-H10, 2-chloro-N-[3-(methylsulfanyl)phenyl]acetamide], the viability at 48 h, 25 µM is 1.13%.

Regarding `CC(Cl)C(=O)Nc1cc(C(C)(C)C)nn1-c1ccccc1` (stereo not shown) [4-H11, N-(3-tert-butyl-1-phenyl-1H-pyrazol-5-yl)-2-chloropropanamide], the viability at 48 h, 25 µM stood at 93%.

With `COc1ccc(OC)c(-c2csc(NC(=O)CCl)n2)c1` [4-H12, 2-chloro-N-[4-(2,5-dimethoxyphenyl)-1,3-thiazol-2-yl]acetamide], the viability at 48 h, 25 µM is 1.27%.

On to `CC(Cl)C(=O)Nc1sc(-c2ccccc2)cc1C(N)=O` (stereo not shown) [4-H13, 2-(2-chloropropanamido)-5-phenylthiophene-3-carboxamide], for which the viability at 48 h, 25 µM is 80.6%.

For the molecule `O=C(CCl)N1CCN(CCOc2ccccc2)CC1` [4-H14, 2-chloro-1-[4-(2-phenoxyethyl)piperazin-1-yl]ethan-1-one hydrochloride], the viability at 48 h, 25 µM stood at 1.67%.

Consider `Cc1cc(S(=O)(=O)N(C)C)cc(NC(=O)CCl)c1C` [4-H15, 2-chloro-N-[5-(dimethylsulfamoyl)-2,3-dimethylphenyl]acetamide], for which the viability at 48 h, 25 µM was 1.33%.

Consider `Cc1ccc(C(NC(=O)CCl)c2cccs2)cc1` (stereo not shown) [4-H16, 2-chloro-N-[(4-methylphenyl)(thiophen-2-yl)methyl]acetamide], for which the viability at 48 h, 25 µM stood at 0.348%.

On to `O=C(CCl)NCCSc1ccc(Cl)cc1` [4-H17, 2-chloro-N-{2-[(4-chlorophenyl)sulfanyl]ethyl}acetamide], for which the viability at 48 h, 25 µM is 0.813%.

On to `O=C(CCl)NCC1CN(Cc2ccccc2)CCO1` (stereo not shown) [4-H18, N-[(4-benzylmorpholin-2-yl)methyl]-2-chloroacetamide], for which the viability at 48 h, 25 µM worked out at 87.2%.

For `O=C(CCl)N1CCC(OCc2ccccc2)CC1` [4-H19, 1-[4-(benzyloxy)piperidin-1-yl]-2-chloroethan-1-one], the viability at 48 h, 25 µM came to 0.757%.

Consider `Cn1ccnc1C(NC(=O)CCl)c1ccccc1` (stereo not shown) [4-H20, 2-chloro-N-[(1-methyl-1H-imidazol-2-yl)(phenyl)methyl]acetamide], for which the viability at 48 h, 25 µM was found to be 44.4%.

On to `Cc1ccc(CNC(=O)c2ccccc2NC(=O)CCl)cc1` [4-H21, 2-(2-chloroacetamido)-N-[(4-methylphenyl)methyl]benzamide], for which the viability at 48 h, 25 µM was 105%.

Consider `O=C(CCl)NOCc1ccccc1` [4-H22, N-(benzyloxy)-2-chloroacetamide], for which the viability at 48 h, 25 µM came to 63.3%.

Take `Cc1ccc(Sc2ccc(NC(=O)CCl)cc2)c(C)c1` [4-I03, 2-chloro-N-{4-[(2,4-dimethylphenyl)sulfanyl]phenyl}acetamide]: the viability at 48 h, 25 µM came to 0.0415%.

In the case of `COc1cc(NC(=O)C(C)Cl)cc(OC)c1` (stereo not shown) [4-I04, 2-chloro-N-(3,5-dimethoxyphenyl)propanamide], the viability at 48 h, 25 µM stood at 81.7%.

With `CC(C)c1ccc(C(C)NC(=O)CCl)cc1` (stereo not shown) [4-I05, 2-chloro-N-{1-[4-(propan-2-yl)phenyl]ethyl}acetamide], the viability at 48 h, 25 µM came out at 1.47%.

Regarding `Cc1ccc(S(=O)(=O)N(C)C)cc1NC(=O)C(C)Cl` (stereo not shown) [4-I06, 2-chloro-N-[5-(dimethylsulfamoyl)-2-methylphenyl]propanamide], the viability at 48 h, 25 µM is 69.7%.

On to `O=C(CCl)Nc1ccc(F)cc1[N+](=O)[O-]` [4-I07, 2-chloro-N-(4-fluoro-2-nitrophenyl)acetamide], for which the viability at 48 h, 25 µM came out at 0.642%.

As for `CCc1ccccc1NC(=O)CNC(=O)CCl` [4-I08, 2-chloro-N-{[(2-ethylphenyl)carbamoyl]methyl}acetamide], the viability at 48 h, 25 µM turned out to be 0.8%.

In the case of `O=C(CCl)Nc1ccc(Cl)c(C(F)(F)F)c1` [4-I09, 2-chloro-N-[4-chloro-3-(trifluoromethyl)phenyl]acetamide], the viability at 48 h, 25 µM was 0.299%.

In the case of `CC(Cl)C(=O)NCC1CCCCC1` (stereo not shown) [4-I10, 2-chloro-N-(cyclohexylmethyl)propanamide], the viability at 48 h, 25 µM worked out at 90.9%.

Consider `O=C(CCl)NCC1(c2ccc3c(c2)OCCO3)CCCC1` [4-I11, 2-chloro-N-{[1-(2,3-dihydro-1,4-benzodioxin-6-yl)cyclopentyl]methyl}acetamide], for which the viability at 48 h, 25 µM worked out at 0.867%.

As to `CC(Cl)C(=O)Nc1cc2c(cc1Cl)C(=O)c1ccccc1C2=O` (stereo not shown) [4-I12, 2-chloro-N-(3-chloro-9,10-dioxo-9,10-dihydroanthracen-2-yl)propanamide], the viability at 48 h, 25 µM came to 79.4%.

For the molecule `O=C(CCl)N(Cc1ccc(F)cc1)C1CCCCC1` [4-I13, 2-chloro-N-cyclohexyl-N-[(4-fluorophenyl)methyl]acetamide], the viability at 48 h, 25 µM is 0.726%.

Regarding `COc1ccc(NC(=O)C(C)Cl)cc1Cl` (stereo not shown) [4-I14, 2-chloro-N-(3-chloro-4-methoxyphenyl)propanamide], the viability at 48 h, 25 µM turned out to be 90.7%.

With `O=C(CCl)Nc1cc(C2CC2)nn1-c1ccccc1` [4-I15, 2-chloro-N-(3-cyclopropyl-1-phenyl-1H-pyrazol-5-yl)acetamide], the viability at 48 h, 25 µM worked out at 1.44%.

In the case of `CNC(=O)CC(NC(=O)CCl)c1ccc(F)cc1F` (stereo not shown) [4-I16, 3-(2-chloroacetamido)-3-(2,4-difluorophenyl)-N-methylpropanamide], the viability at 48 h, 25 µM was 18.5%.

Regarding `O=C(CCl)NC(=O)Nc1ccccc1` [4-I17, 3-(2-chloroacetyl)-1-phenylurea], the viability at 48 h, 25 µM is 64%.

With `CC(Cl)C(=O)Nc1ccc([N+](=O)[O-])cc1` (stereo not shown) [4-I18, 2-chloro-N-(4-nitrophenyl)propanamide], the viability at 48 h, 25 µM was 86.7%.

For `CCN(CC(=O)NC1CCS(=O)(=O)C1)C(=O)CCl` (stereo not shown) [4-I19, 2-chloro-N-{[(1,1-dioxo-1lambda6-thiolan-3-yl)carbamoyl]methyl}-N-ethylacetamide], the viability at 48 h, 25 µM was 1.33%.

For the molecule `O=C(CCl)N1N=C(c2ccccc2)CC1c1ccccc1` (stereo not shown) [4-I20, 2-chloro-1-(3,5-diphenyl-4,5-dihydro-1H-pyrazol-1-yl)ethan-1-one], the viability at 48 h, 25 µM came to 0.141%.

In the case of `COc1ccc(NC(=O)CCl)c([N+](=O)[O-])c1` [4-I21, 2-chloro-N-(4-methoxy-2-nitrophenyl)acetamide], the viability at 48 h, 25 µM came to 35.6%.

For the molecule `Cc1ccc(C2CC(c3cccs3)=NN2C(=O)CCl)cc1` (stereo not shown) [4-I22, 2-chloro-1-[5-(4-methylphenyl)-3-(thiophen-2-yl)-4,5-dihydro-1H-pyrazol-1-yl]ethan-1-one], the viability at 48 h, 25 µM is 0.369%.

Consider `O=C(CCl)Nc1cc(C2CCCC2)nn1-c1ccccc1` [4-J03, 2-chloro-N-(3-cyclopentyl-1-phenyl-1H-pyrazol-5-yl)acetamide], for which the viability at 48 h, 25 µM worked out at 0.358%.

For the molecule `O=C(CCl)Nc1cc(C(F)(F)F)ccc1Cl` [4-J04, 2-chloro-N-[2-chloro-5-(trifluoromethyl)phenyl]acetamide], the viability at 48 h, 25 µM stood at 1.3%.

Regarding `O=C(CCl)Nc1ccccc1SCc1ccccc1` [4-J05, N-[2-(benzylsulfanyl)phenyl]-2-chloroacetamide], the viability at 48 h, 25 µM amounted to 0.437%.

Turning to `O=C(CCl)Nc1ccccc1C(=O)c1ccccc1` [4-J06, N-(2-benzoylphenyl)-2-chloroacetamide], the viability at 48 h, 25 µM is 1.12%.

As for `O=C(CCl)N1CCN(S(=O)(=O)c2ccc([N+](=O)[O-])cc2)CC1` [4-J07, 2-chloro-1-[4-(4-nitrobenzenesulfonyl)piperazin-1-yl]ethan-1-one], the viability at 48 h, 25 µM was -0.414%.
